Experimental findings from EP2714063B1, “VEGFR2/3-ACTIVATING AGENT FOR USE IN THE TREATMENT OF COGNITIVE DYSFUNCTIONS” (priority 2011, dated 2012) are described below.

One experiment relates to VEGFD. It is filed as cell-based, C57BL/6 mice. The settings on record: treatment from DIV5 to DIV10; 1 µM TTX, 10 µM MK801, 10 µM nifedipine. As for the experimental part: RNA extraction and cDNA synthesis. Total RNA was isolated at DIV10 to DIV13 from hippocampal primary neuron cultures or isolated brain tissues with Rneasy Mini Kit (Qiagen, Hilden, Germany) including an optional Dnase I treatment at room temperature for 15 min according to manufacturer's instructions (Qiagen). 1.2 µg of extracted RNA was reverse transcribed into first strand cDNA using High Capacity cDNA Reverse Transcription kit (Applied Biosystems, Foster City, CA).
Real time quantitative PCR. Quantitative reverse transcriptase PCR (qRT-PCR) was done on an ABI7300 thermal cycler using Universal qRT-PCR master mix with TaqMan Gene Expression Assays for the indicated genes (Applied Biosystems). The following TaqMan Gene Expression Assays were used in this study: Gusb (Mm00446953_m1), cFos (Mm00487425_m1), VEGFD (Mm00438965_m1), VEGFC (Mm01202432_m1), VEGF (Mm01281449_m1), VEGFR3 (Mm01292618_m1), beta-actin (Mm00607939_s1), beta-2 microglobulin (Mm00437762_m1), CBP (Mm01342435_m1), p38 MAPK alpha (Mm00442497_m1), p38 MAPK beta (Mm00440955_m1). Expression of target genes was normalized against the expression of Gusb as endogenous control gene. Data were derived from at least 5 independent experiments.

A further experiment concerns hippocampal neurons. Description: Morphometric analyses (total dendritic length, Sholl analysis, spine density) of cultured neurons. The format is cell-based, C57BL/6 mice. As for the experimental part:
Hippocampal cultures and transfection. Hippocampal neurons from newborn C57BL/6 mice were cultured as known in the art. Experiments were done after a culturing period of 10 to 14 days in vitro (DIV). DNA transfection was done on DIV8 using Lipofectamine 2000 (Invitrogen, San Diego, CA). For the studies on dendrite morphology, neurons were analyzed 4-5 days after transfection.
Morphometric analyses. For 3D Sholl Analysis, total dendritic length and spine morphology were calculated using Object-Image freeware software with a specific set of macros (written by Dr. E. Ruthazer, McGill University, Quebec). Briefly, a z-Stack acquisition was imported, calibrated in Object-Image and manually traced. Total dendritic length was then computed. For Sholl analysis, the shell interval was set at 5 µm. All analyses were performed blind. In all in vitro experiments, for each condition, a minimum of 12 neurons from three independent preparations was analyzed. For the Golgi staining quantifications of 20 neurons for each condition from 4 different injected animals per viral construct were traced and analyzed.
Immunocytochemistry. […] For the morphometric analyses, fluorescence images were acquired using a confocal laser-scanning microscope TCS SP2 (Leica, Mannheim, Germany) equipped with an inverted fluorescence microscope DM IRE2 (Leica) and Leica confocal scan software. […]

As to `C[C@]12N[C@H](Cc3ccccc31)c1ccccc12` [MK801], in the experiment with VEGFD, the “VEGFD expression (mRNA)” value was “significantly reduced the expression of VEGFD mRNA”.

For the molecule `C[S+]([O-])c1ccc(-c2nc(-c3ccncc3)c(-c3ccc(F)cc3)[nH]2)cc1` (stereo not drawn) [SB203580], the “effect on the rVEGFD-induced rescue of dendrite length and complexity” value in the experiment with hippocampal neurons (neurons expressing CaMBP4 (and CaMKIVK75E), treated for 3 days with rVEGFD) is “severely compromised the ability of rVEGFD to rescue the impairment of dendrite length and complexity”. Further, the Sholl analysis entry in the experiment on hippocampal neurons (neurons expressing hrGFP, CaMBP4 or CaMKIVK75E, SB203580 without rVEGFD) is “no difference compared to the respective untreated controls”.
